Experimental data reported in PMC4658428 (Frontiers in Microbiology, 2015).

Experiments:
LdtR = conditions: cited from earlier work
[1] = molecular target: LdtR wild type (Liberibacter asiaticus); test: SEC
ST1710 = conditions: read-out: affinity value; cited from earlier work
[2] = tested on: LdtR WT (Liberibacter asiaticus); test: EMSA
WT LdtR [3] = format: biochemical, Liberibacter asiaticus
LdtR Wild type = LdtR Wild type (Candidatus Liberibacter asiaticus, UniProt A0ABN4AZS1)
[4] = tested on: S. meliloti strain SMP5 (1021-pBBR1MCS-5); format: cell-based, Sinorhizobium meliloti
WT LdtR [5] = format: binding, Liberibacter asiaticus
B. subtilis cells = format: cell-based, Bacillus subtilis
[6] = tested on: S. meliloti strain SMP2B (ΔldtRSMc-pBBR1MCS-5::LdtR); format: cell-based
[7] = tested on: WT LdtR, lacZ reporter in B. subtilis strain BS6; format: cell-based, Bacillus subtilis
[8] = tested on: S. meliloti strain SMP2A (ΔldtRSMc-pBBR1MCS-5); format: cell-based

O=C(CCc1ccc(O)cc1)c1c(O)cc(O)cc1O [phloretin]
effect on LdtR binding to DNA (LdtR): inhibitors of LdtR binding to DNA

LdtR wild type (natural protein)
stoichiometry N [1]: 2

CC[C@H](c1ccc(O)cc1)[C@@H](CC)c1ccc(O)cc1 [hexestrol]
effect on LdtR binding to DNA (LdtR): inhibitors of LdtR binding to DNA

CC[n+]1c(-c2ccccc2)c2cc(N)ccc2c2ccc(N)cc21 [ethidium]
Kd (ST1710): 13.7 µM

PldtP
K half [2]: 200 nM

CCc1oc2ccccc2c1C(=O)c1cc(Br)c(O)c(Br)c1 [benzbromarone]
effect on LdtR binding to DNA (LdtR): inhibitors of LdtR binding to DNA
excess of benzbromarone at which the LdtR:DNA complex is disrupted (WT LdtR [3]): 10 fold excess
N (LdtR Wild type): 0.34 ± 0.08
ΔG (LdtR Wild type): -7.5 kcal/mol
ΔH (LdtR Wild type): -3.0 ± 1.0 kcal/mol
ΔS (LdtR Wild type): 14.9 cal/mol/deg
Growth rate constant, k [4]: 0.044 ± 0.003 generations/h
Mean generation time [4]: 22.7 h
increase of the duplication time on addition of benzbromarone [4]: 39%
change in melting temperature (ΔTm) (WT LdtR [5]): -1.8 ± 0.2 °C
decrease of melting temperature (WT LdtR [5]): 3.6 ± 0.2 °C
concentrations found to be toxic to the cells (B. subtilis cells): higher than 5 μM
Growth rate constant, k [6]: 0.045 ± 0.002 generations/h
Mean generation time [6]: 22.2 h
increase of the duplication time on addition of benzbromarone [6]: 25%
reduction of β-galactosidase activity [7]: 40%
Growth rate constant, k [8]: 0.042 ± 0.002 generations/h
Mean generation time [8]: 23.8 h
